Measured values: PubChem BioAssay AID1963983 (Molecular Pharmacology Branch, DTP, NCI, 2024)

System: 186277-243-T-J2-PDC multi-cell spheroid viability
Assay: Anticancer human tumor 186277-243-T-J2-PDC patient-derived colon adenocarcinoma cell line growth inhibition [PI3K]
Conditions: for viability, T/C: stronger effect = lower value
Method in brief: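 Tumor cells grown as multi-cell spheroids with HUVEC endothelial cells and MSC fibroblast-like stroma were treated with targeted agents combined with inavolisib, alpelisib, duvelisib or copanlisib. Doses fell in half-log steps from near clinical Cmax, else from 10 microM. Viability was measured.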

[1] = curve of first compound, second compound 0.00316 µM
[2] = curve of first compound, second compound 0.01 µM
[3] = curve of first compound, second compound 0.0316 µM
[4] = curve of first compound, second compound 0.1 µM
[5] = curve of first compound, second compound 0.316 µM
[6] = curve of first compound, second compound 1 µM
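Further: spheroids exposed to compounds for seven days before viability reading.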
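Wherever viability, T/C is given: 100% = DMSO vehicle control viability.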

Structure (SMILES): C#Cc1c(F)ccc2cc(O)cc(-c3ncc4c(N5CC6CCC(C5)N6)nc(OCC56CCCN5CC(F)C6)nc4c3F)c12 (stereo unspecified) + COc1c(OCCCN2CCOCC2)ccc2c3n(c(=NC(=O)c4cnc(N)nc4)nc12)CCN3
- IC50 [1]: 0.0653 µM
- IC50 [2]: < 0.0316 µM
- IC50 [3]: < 0.0316 µM
- IC50 [4]: < 0.0316 µM
- IC50 [5]: < 0.0316 µM
- IC50 [6]: < 0.0316 µM
- viability, T/C (second compound 0.00316 µM, first compound 0.0316 µM): 78.4%
- viability, T/C (second compound 0.00316 µM, first compound 0.1 µM): 32.4%
- viability, T/C (second compound 0.00316 µM, first compound 0.316 µM): 17.5%
- viability, T/C (second compound 0.00316 µM, first compound 1 µM): 8.98%
- viability, T/C (second compound 0.00316 µM, first compound 3.16 µM): 9.36%
- viability, T/C (second compound 0.00316 µM, first compound 10 µM): 6.51%
- viability, T/C (second compound 0.01 µM, first compound 0.0316 µM): 47.8%
- viability, T/C (second compound 0.01 µM, first compound 0.1 µM): 20.9%
- viability, T/C (second compound 0.01 µM, first compound 0.316 µM): 13.7%
- viability, T/C (second compound 0.01 µM, first compound 1 µM): 10.1%
- viability, T/C (second compound 0.01 µM, first compound 3.16 µM): 8.35%
- viability, T/C (second compound 0.01 µM, first compound 10 µM): 5.59%
- viability, T/C (second compound 0.0316 µM, first compound 0.0316 µM): 16.9%
- viability, T/C (second compound 0.0316 µM, first compound 0.1 µM): 7.55%
- viability, T/C (second compound 0.0316 µM, first compound 0.316 µM): 10.6%
- viability, T/C (second compound 0.0316 µM, first compound 1 µM): 3.62%
- viability, T/C (second compound 0.0316 µM, first compound 3.16 µM): 3.8%
- viability, T/C (second compound 0.0316 µM, first compound 10 µM): 4.03%
- viability, T/C (second compound 0.1 µM, first compound 0.0316 µM): 5.72%
- viability, T/C (second compound 0.1 µM, first compound 0.1 µM): 4.46%
- viability, T/C (second compound 0.1 µM, first compound 0.316 µM): 3%
- viability, T/C (second compound 0.1 µM, first compound 1 µM): 3.2%
- viability, T/C (second compound 0.1 µM, first compound 3.16 µM): 1.5%
- viability, T/C (second compound 0.1 µM, first compound 10 µM): 0.18%
- viability, T/C (second compound 0.316 µM, first compound 0.0316 µM): 3.44%
- viability, T/C (second compound 0.316 µM, first compound 0.1 µM): 0.58%
- viability, T/C (second compound 0.316 µM, first compound 0.316 µM): 0.7%
- viability, T/C (second compound 0.316 µM, first compound 1 µM): 0.32%
- viability, T/C (second compound 0.316 µM, first compound 3.16 µM): 0.85%
- viability, T/C (second compound 0.316 µM, first compound 10 µM): 0.1%
- viability, T/C (second compound 1 µM, first compound 0.0316 µM): 0.56%
- viability, T/C (second compound 1 µM, first compound 0.1 µM): 0.38%
- viability, T/C (second compound 1 µM, first compound 0.316 µM): 0.53%
- viability, T/C (second compound 1 µM, first compound 1 µM): 0.17%
- viability, T/C (second compound 1 µM, first compound 3.16 µM): 0.22%
- viability, T/C (second compound 1 µM, first compound 10 µM): 0.16%

Structure (SMILES): C[C@@H](NC(=O)c1ncnc(N)c1Cl)c1ncc(C(=O)Nc2cc(C(F)(F)F)c(Cl)cn2)s1
- viability, T/C (compound 0.0316 µM): 95.7% [middle of 4 runs]
- viability, T/C (compound 0.1 µM): 92.9% [middle of 4 runs]
- viability, T/C (compound 0.316 µM): 92.3% [middle of 4 runs]
- viability, T/C (compound 1 µM): 99.5% [middle of 4 runs]
- viability, T/C (compound 3.16 µM): 105% [middle of 4 runs]
- viability, T/C (compound 10 µM): 79.9% [middle of 4 runs]
- IC50 (curve of compound): > 10 µM

Structure (SMILES): Cn1cnc2c(F)c(Nc3ccc(Br)cc3Cl)c(C(=O)NOCCO)cc21 + CC(Nc1ccc2c(c1)OCCn1cc(N3C(=O)OCC3C(F)F)nc1-2)C(N)=O
- IC50 [1]: 0.115 µM
- IC50 [2]: 0.0778 µM
- IC50 [3]: 0.0394 µM
- IC50 [4]: 0.0119 µM
- IC50 [5]: < 0.00949 µM
- IC50 [6]: < 0.00949 µM
- viability, T/C (second compound 0.00316 µM, first compound 0.00949 µM): 97.2%
- viability, T/C (second compound 0.00316 µM, first compound 0.03 µM): 83%
- viability, T/C (second compound 0.00316 µM, first compound 0.0949 µM): 47.7%
- viability, T/C (second compound 0.00316 µM, first compound 0.3 µM): 36.6%
- viability, T/C (second compound 0.00316 µM, first compound 0.949 µM): 14.2%
- viability, T/C (second compound 0.00316 µM, first compound 3 µM): 8.95%
- viability, T/C (second compound 0.01 µM, first compound 0.00949 µM): 101%
- viability, T/C (second compound 0.01 µM, first compound 0.03 µM): 79.8%
- viability, T/C (second compound 0.01 µM, first compound 0.0949 µM): 40.4%
- viability, T/C (second compound 0.01 µM, first compound 0.3 µM): 26.5%
- viability, T/C (second compound 0.01 µM, first compound 0.949 µM): 15.9%
- viability, T/C (second compound 0.01 µM, first compound 3 µM): 9.46%
- viability, T/C (second compound 0.0316 µM, first compound 0.00949 µM): 94%
- viability, T/C (second compound 0.0316 µM, first compound 0.03 µM): 54.5%
- viability, T/C (second compound 0.0316 µM, first compound 0.0949 µM): 32.8%
- viability, T/C (second compound 0.0316 µM, first compound 0.3 µM): 19.2%
- viability, T/C (second compound 0.0316 µM, first compound 0.949 µM): 10.6%
- viability, T/C (second compound 0.0316 µM, first compound 3 µM): 6.13%
- viability, T/C (second compound 0.1 µM, first compound 0.00949 µM): 53.9%
- viability, T/C (second compound 0.1 µM, first compound 0.03 µM): 33.8%
- viability, T/C (second compound 0.1 µM, first compound 0.0949 µM): 22.4%
- viability, T/C (second compound 0.1 µM, first compound 0.3 µM): 8.1%
- viability, T/C (second compound 0.1 µM, first compound 0.949 µM): 7.55%
- viability, T/C (second compound 0.1 µM, first compound 3 µM): 3.21%
- viability, T/C (second compound 0.316 µM, first compound 0.00949 µM): 30.7%
- viability, T/C (second compound 0.316 µM, first compound 0.03 µM): 16.4%
- viability, T/C (second compound 0.316 µM, first compound 0.0949 µM): 9.95%
- viability, T/C (second compound 0.316 µM, first compound 0.3 µM): 4.19%
- viability, T/C (second compound 0.316 µM, first compound 0.949 µM): 4.43%
- viability, T/C (second compound 0.316 µM, first compound 3 µM): 3.42%
- viability, T/C (second compound 1 µM, first compound 0.00949 µM): 20.1%
- viability, T/C (second compound 1 µM, first compound 0.03 µM): 10.1%
- viability, T/C (second compound 1 µM, first compound 0.0949 µM): 4.65%
- viability, T/C (second compound 1 µM, first compound 0.3 µM): 3.78%
- viability, T/C (second compound 1 µM, first compound 0.949 µM): 3.32%
- viability, T/C (second compound 1 µM, first compound 3 µM): 0.47%
